Converted amounts (≈) assume the structure as drawn. Read-outs that look alike come from different tables or passages of the source.
How the values were obtained:
[1] = system: A. baumannii clinical isolates; experiment: Broth microdilution MIC, A. baumannii clinical isolates; type: cell-based, Acinetobacter baumannii; conditions: for CLSI % Res / CLSI % Sus: CLSI BP; for CLSI % Res: for MEM-ANT3310 % at ≥16 µg/mL; for CLSI % Sus: for MEM-ANT3310 % inhibited at ≤8 µg/mL; for EUCAST % Res / EUCAST % Sus: EUCAST BP; for MIC50 / MIC90: Acinetobacter baumannii; for MIC50: read-out: MIC50; for MIC90: read-out: MIC90
Protocol: (§1) All isolates were randomly selected from the frozen culture collection of IHMA collected in 2018 and 2019. Matrix-assisted laser desorption ionization-time of flight mass spectrometry was used to confirm the identity of the organisms tested (Bruker Daltonics, Bremen, Germany).
(§2) MICs for all antimicrobial agents were determined at IHMA by broth microdilution in accordance with both CLSI ([17]) and EUCAST ([18]) guidelines. Microtiter panels were prepared by IHMA and stored at −70°C in cation-adjusted Mueller Hinton broth (CAMHB) (Becton Dickinson). Iron-depleted CAMHB was used to test cefiderocol. Panels containing ANT3310 were prepared fresh on the day of testing. […] MIC values corresponded to the first well with no visible growth. Quality control testing was performed on each day of testing with E. coli ATCC 25922, P. aeruginosa ATCC 27853, K. pneumoniae ATCC 700603 and BAA 1705, and A. baumannii NCTC 13304. MICs were interpreted using 2023 CLSI ([17]) and EUCAST ([18]) BPs.

[2] = system: carbapenem-resistant Acinetobacter baumannii (CRAB) clinical isolates; experiment: Broth microdilution MIC, CRAB isolates; type: cell-based; conditions: for CLSI % Res / CLSI % Sus: CLSI BP; for CLSI % Res: for MEM-ANT3310 % at ≥16 µg/mL; for CLSI % Sus: for MEM-ANT3310 % inhibited at ≤8 µg/mL; for EUCAST % Res / EUCAST % Sus: EUCAST BP; for MIC50 / MIC90: Acinetobacter baumannii; for MIC50: read-out: MIC50; for MIC90: read-out: MIC90
Protocol: as §1, §2

[3] = system: KPC-producing Enterobacterales (KPC-CRE); experiment: organism not typed; type: cell-based
Protocol: as §1, §2

[4] = system: OXA-producing Enterobacterales (OXA-CRE); experiment: organism not typed; type: cell-based
Protocol: as §1, §2

[5] = 2018 Global collection, All A. baumannii, N 500
[6] = A. baumannii, one or both of the 2018/2019 collections
[7] = 2018 Global collection, CRAB (MEM MICs >4 µg/mL), N 363
[8] = 2018 Global collection, CRAB, N 363
[9] = 180 KPC-producing Enterobacterales, EUCAST BP
[10] = 252 OXA-producing Enterobacterales, EUCAST BP
[11] = 2019 Global collection, All A. baumannii, N 405
[12] = 2019 Global collection, CRAB (MEM MICs >4 µg/mL), N 340
[13] = 2019 Global collection, CRAB, N 340

Question: `NCC[C@H](O)C(=O)N[C@@H]1C[C@H](N)[C@@H](O[C@H]2O[C@H](CN)[C@@H](O)[C@H](O)[C@H]2O)[C@H](O)[C@H]1O[C@H]1O[C@H](CO)[C@@H](O)[C@H](N)[C@H]1O` [Amikacin, amikacin] was tested. Which “Number of isolates inhibited at MIC of 0.5 µg/mL” value [1, 5] did it give?
Answer: The value was 2.

Question: What about the “Number of isolates inhibited at MIC of 1 µg/mL” value [1, 5] of the same compound?
Answer: The value was 42.

Question: What about the “Number of isolates inhibited at MIC of 2 µg/mL” value [1, 5] of the same compound?
Answer: The value was 96.

Question: And the “Number of isolates inhibited at MIC of 4 µg/mL” value [1, 5]?
Answer: The value was 33.

Question: And the “Number of isolates inhibited at MIC of 8 µg/mL” value [1, 5]?
Answer: The value was 12.

Question: And the “Number of isolates inhibited at MIC of 16 µg/mL” value [1, 5]?
Answer: Its value is 11.

Question: And the “Number of isolates inhibited at MIC of 32 µg/mL” value [1, 5]?
Answer: The value was 13.

Question: And the “Number of isolates inhibited at MIC of >32 µg/mL” value [1, 5]?
Answer: Its value is 291.

Question: What about the “CLSI % Res” value [1, 5] of the same compound?
Answer: The value was 58.2%.

Question: What about the “CLSI % Sus” value [1, 5] of the same compound?
Answer: The value was 39.2%.

Question: What about the “EUCAST % Res” value [1, 5] of the same compound?
Answer: Its value is 63%.

Question: And the “EUCAST % Sus” value [1, 5]?
Answer: Its value is 37%.

Question: What about the MIC50 [1, 5] of the same compound?
Answer: The MIC50 was > 32 µg/mL.

Question: And the MIC90 [1, 5]?
Answer: Its MIC90 is > 32 µg/mL.

Question: What about the MIC90 [1, 6] of the same compound?
Answer: Its MIC90 is ≥ 32 µg/mL.

Question: And the “Number of isolates inhibited at MIC of 0.5 µg/mL” value [2, 7]?
Answer: Its value is 1.

Question: And the “Number of isolates inhibited at MIC of 1 µg/mL” value [2, 7]?
Answer: The value was 9.

Question: And the “Number of isolates inhibited at MIC of 2 µg/mL” value [2, 7]?
Answer: Its value is 25.

Question: What about the “Number of isolates inhibited at MIC of 4 µg/mL” value [2, 7] of the same compound?
Answer: The value was 20.

Question: What about the “Number of isolates inhibited at MIC of 8 µg/mL” value [2, 7] of the same compound?
Answer: The value was 5.

Question: And the “Number of isolates inhibited at MIC of 16 µg/mL” value [2, 7]?
Answer: Its value is 10.

Question: What about the “Number of isolates inhibited at MIC of 32 µg/mL” value [2, 7] of the same compound?
Answer: Its value is 11.

Question: What about the “Number of isolates inhibited at MIC of >32 µg/mL” value [2, 7] of the same compound?
Answer: The value was 282.

Question: And the “CLSI % Res” value [2, 8]?
Answer: The value was 77.7%.

Question: And the “CLSI % Sus” value [2, 8]?
Answer: The value was 19.3%.

Question: What about the “EUCAST % Res” value [2, 8] of the same compound?
Answer: The value was 83.5%.

Question: And the “EUCAST % Sus” value [2, 8]?
Answer: The value was 16.5%.

Question: What about the MIC50 [2, 7] of the same compound?
Answer: The MIC50 was > 32 µg/mL.

Question: What about the MIC90 [2, 7] of the same compound?
Answer: The MIC90 was > 32 µg/mL.

Question: And the MIC50 [3]?
Answer: Its MIC50 is 16 µg/mL (≈ 27.3 µM).

Question: What about the MIC90 [3] of the same compound?
Answer: The MIC90 was 64 µg/mL (≈ 109 µM).

Question: What about the “CLSI % Res” value ([3]; 180 KPC-producing Enterobacterales, CLSI BP, for MEM-ANT3310 % at ≥16 µg/mL) of the same compound?
Answer: Its value is 11.7%.

Question: And the “CLSI % Sus” value ([3]; 180 KPC-producing Enterobacterales, CLSI BP, for MEM-ANT3310 % inhibited at ≤8 µg/mL)?
Answer: The value was 57.8%.

Question: And the “EUCAST % Res” value [3, 9]?
Answer: Its value is 54.4%.

Question: What about the “EUCAST % Sus” value [3, 9] of the same compound?
Answer: The value was 45.6%.

Question: What about the MIC50 [4] of the same compound?
Answer: The MIC50 was 16 µg/mL (≈ 27.3 µM).

Question: And the MIC90 [4]?
Answer: Its MIC90 is > 64 µg/mL.

Question: And the “CLSI % Res” value ([4]; 252 OXA-producing Enterobacterales, CLSI BP, for MEM-ANT3310 % at ≥16 µg/mL)?
Answer: Its value is 32.1%.

Question: What about the “CLSI % Sus” value ([4]; 252 OXA-producing Enterobacterales, CLSI BP, for MEM-ANT3310 % inhibited at ≤8 µg/mL) of the same compound?
Answer: The value was 59.5%.

Question: And the “EUCAST % Res” value [4, 10]?
Answer: Its value is 52.0%.

Question: What about the “EUCAST % Sus” value [4, 10] of the same compound?
Answer: The value was 48.0%.

Question: Which results are given for `CN(C)[C@@H]1C(O)=C(C(N)=O)C(=O)[C@@]2(O)C(O)=C3C(=O)c4c(O)c(NC(=O)CN5CCCC5)cc(F)c4C[C@H]3C[C@@H]12` [Eravacycline, eravacycline]?
Answer: Number of isolates inhibited at MIC of 0.25 µg/mL [1, 5]: 66; Number of isolates inhibited at MIC of 0.5 µg/mL [1, 5]: 83; Number of isolates inhibited at MIC of 1 µg/mL [1, 5]: 194; Number of isolates inhibited at MIC of 2 µg/mL [1, 5]: 55; Number of isolates inhibited at MIC of 4 µg/mL [1, 5]: 3; Number of isolates inhibited at MIC of ≤0.125 µg/mL [1, 5]: 99; MIC50 [1, 5]: 1 µg/mL (≈ 1.79 µM); MIC90 [1, 5]: 2 µg/mL (≈ 3.58 µM); MIC90 [1, 6]: 2 µg/mL (≈ 3.58 µM); Number of isolates inhibited at MIC of 0.25 µg/mL [2, 7]: 43; Number of isolates inhibited at MIC of 0.5 µg/mL [2, 7]: 73; Number of isolates inhibited at MIC of 1 µg/mL [2, 7]: 186; Number of isolates inhibited at MIC of 2 µg/mL [2, 7]: 53; Number of isolates inhibited at MIC of 4 µg/mL [2, 7]: 3; Number of isolates inhibited at MIC of ≤0.125 µg/mL [2, 7]: 5; MIC50 [2, 7]: 1 µg/mL (≈ 1.79 µM); MIC90 [2, 7]: 2 µg/mL (≈ 3.58 µM); MIC50 [3]: 0.5 µg/mL (≈ 0.895 µM); MIC90 [3]: 2 µg/mL (≈ 3.58 µM); MIC50 [4]: 1 µg/mL (≈ 1.79 µM); MIC90 [4]: 2 µg/mL (≈ 3.58 µM)

Question: With `C[C@H]1COc2c(N3CCN(C)CC3)c(F)cc3c(=O)c(C(=O)O)cn1c23` [Levofloxacin, levofloxacin] as the compound, how does the “Number of isolates inhibited at MIC of 0.5 µg/mL” value [1, 11] read?
Answer: Its value is 1.

Question: And the “Number of isolates inhibited at MIC of 1 µg/mL” value [1, 11]?
Answer: Its value is 1.

Question: And the “Number of isolates inhibited at MIC of 2 µg/mL” value [1, 11]?
Answer: The value was 10.

Question: What about the “Number of isolates inhibited at MIC of 4 µg/mL” value [1, 11] of the same compound?
Answer: Its value is 33.

Question: And the “Number of isolates inhibited at MIC of 8 µg/mL” value [1, 11]?
Answer: The value was 96.

Question: And the “Number of isolates inhibited at MIC of 16 µg/mL” value [1, 11]?
Answer: Its value is 99.

Question: And the “CLSI % Res” value [1, 11]?
Answer: The value was 73.8%.

Question: What about the “CLSI % Sus” value [1, 11] of the same compound?
Answer: The value was 18%.

Question: What about the “EUCAST % Res” value [1, 11] of the same compound?
Answer: The value was 84.4%.

Question: What about the “EUCAST % Sus” value [1, 11] of the same compound?
Answer: Its value is 15.3%.

Question: And the “Number of isolates inhibited at MIC of >16 µg/mL” value ([1]; 2019 Global collection, All A. baumannii, N 405, footnote c)?
Answer: The value was 104^c.

Question: And the “Number of isolates inhibited at MIC of ≤0.25 µg/mL” value ([1]; 2019 Global collection, All A. baumannii, N 405, footnote d)?
Answer: The value was 61^d.

Question: What about the MIC50 [1, 11] of the same compound?
Answer: The MIC50 was 16 µg/mL (≈ 44.3 µM).

Question: What about the MIC90 [1, 11] of the same compound?
Answer: Its MIC90 is > 16 µg/mL.

Question: What about the MIC90 [1, 6] of the same compound?
Answer: Its MIC90 is ≥ 32 µg/mL.

Question: And the “Number of isolates inhibited at MIC of 2 µg/mL” value [2, 12]?
Answer: Its value is 9.

Question: And the “Number of isolates inhibited at MIC of 4 µg/mL” value [2, 12]?
Answer: The value was 29.

Question: And the “Number of isolates inhibited at MIC of 8 µg/mL” value [2, 12]?
Answer: The value was 92.

Question: What about the “Number of isolates inhibited at MIC of 16 µg/mL” value [2, 12] of the same compound?
Answer: Its value is 97.

Question: And the “CLSI % Res” value [2, 13]?
Answer: The value was 86.2%.

Question: What about the “CLSI % Sus” value [2, 13] of the same compound?
Answer: Its value is 5.3%.

Question: And the “EUCAST % Res” value [2, 13]?
Answer: Its value is 97.3%.

Question: And the “EUCAST % Sus” value [2, 13]?
Answer: The value was 2.7%.

Question: What about the “Number of isolates inhibited at MIC of >16 µg/mL” value ([2]; 2019 Global collection, CRAB, N 340, footnote c) of the same compound?
Answer: Its value is 104^c.

Question: And the “Number of isolates inhibited at MIC of ≤0.25 µg/mL” value ([2]; 2019 Global collection, CRAB, N 340, footnote d)?
Answer: The value was 9^d.

Question: What about the MIC50 [2, 12] of the same compound?
Answer: The MIC50 was 16 µg/mL (≈ 44.3 µM).

Question: And the MIC90 [2, 12]?
Answer: The MIC90 was > 16 µg/mL.
